What all share (assay type): cell-based
The target in series [1] is T1, human H4 receptor (Homo sapiens, UniProt Q9H3N8).
T1 construct: expressed in transfected cells; host or cells: HEKf cells infected with baculovirus
The experiment in a line: H4 Antagonist Functional cAMP Gi Assay. The note with it: HEKf cells expressing human H4 receptor, functional antagonist pKb by Cheng-Prusoff vs histamine; for Kb: read-out: Human H4 cAMP fpKb (converted). An outline of the steps: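 Baculovirus-transduced HEKf cells in HBSS with 500 nM IBMX were stimulated with 1 μM forskolin, incubated 30 min with test compounds, and cAMP was then read by HTRF after 60 min detection at room temperature. EC50 values came from 4-parameter logistic fits; pKb was derived by Cheng-Prusoff.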

The target in series [2] is T1, human H4 receptor. The experiment in a line: H4 Antagonist Functional Dynamic Mass Redistribution Assay. To be noted: HEKf cells expressing human H4 receptor, functional antagonist pKb by Cheng-Prusoff vs histamine EC80; for Kb: read-out: Human H4 DMR fpKb (converted). The procedure:
HEKf cells were infected using baculovirus expressing the human H4 receptor, plated into fibronectin-coated EPIC plates at a density of 10,000 cells/well and incubated overnight at 37° C. The medium on cells was changed to 30 μL HBSS with 20 mM HEPES per well and 30 nL DMSO were added per well by LabCyte ECHO acoustic dispensing. Following 2 h equilibration at room temperature, 30 nL of H4 ligands prepared in DMSO were stamped by LabCyte ECHO acoustic dispensing into seeded EPIC plates and cellular dynamic mass redistribution was monitored using a Corning EPIC plate reader. Following 45 min measurement, 30 nL/well of histamine EC80 was added and monitored to obtain antagonist assay data. Maximum baseline-corrected responses in pm were used to generate concentration response curves. EC50 values were generated using a 4-parameter logistical fit equation to quantify agonist potencies. Functional antagonist affinity values were generated using the Cheng-Prusoff equation to calculate a pKb value using the antagonist assay data.

Series [3] deals with T2, hERG (Homo sapiens, UniProt Q12809). The experiment in a line: hERG single-concentration assay (QPatch automated patch clamp, CHO cells, 30 μM). To be noted: CHO cells stably expressing hERG. From the text:
(§1) Series resistance (4-15 MΩ) was compensated by >80%.
Background: Block of hERG is tested as a sign of cardiac risk.

Series [4] has as its target T2, hERG. The experiment in a line: hERG pIC50 assay (QPatch automated patch clamp, CHO cells, 1, 3, 10 and 30 μM). To be noted: CHO cells expressing hERG, 1-30 μM, ≤4.0 = fails to reach >40% block at 30 μM.
Description: as §1

One may read the inhibition as the relative decrease from the control value, in per cent. Read a low inhibition as little suppression. The IC50 is the concentration needed to halve the response being measured. Read a high IC50 as weaker potency.

T1 sequence (Q9H3N8 whole entry): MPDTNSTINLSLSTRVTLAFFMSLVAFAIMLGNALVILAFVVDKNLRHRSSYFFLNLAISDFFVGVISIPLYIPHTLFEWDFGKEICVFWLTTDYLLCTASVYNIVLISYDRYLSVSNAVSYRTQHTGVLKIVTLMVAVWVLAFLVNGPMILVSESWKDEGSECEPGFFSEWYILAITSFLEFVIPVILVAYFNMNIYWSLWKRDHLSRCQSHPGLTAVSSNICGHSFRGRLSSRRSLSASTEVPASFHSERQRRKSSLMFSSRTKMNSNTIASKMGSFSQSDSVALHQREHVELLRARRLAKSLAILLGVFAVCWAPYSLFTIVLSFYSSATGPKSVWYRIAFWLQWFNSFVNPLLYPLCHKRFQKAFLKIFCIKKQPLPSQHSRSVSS
T2 sequence (Q12809 whole entry): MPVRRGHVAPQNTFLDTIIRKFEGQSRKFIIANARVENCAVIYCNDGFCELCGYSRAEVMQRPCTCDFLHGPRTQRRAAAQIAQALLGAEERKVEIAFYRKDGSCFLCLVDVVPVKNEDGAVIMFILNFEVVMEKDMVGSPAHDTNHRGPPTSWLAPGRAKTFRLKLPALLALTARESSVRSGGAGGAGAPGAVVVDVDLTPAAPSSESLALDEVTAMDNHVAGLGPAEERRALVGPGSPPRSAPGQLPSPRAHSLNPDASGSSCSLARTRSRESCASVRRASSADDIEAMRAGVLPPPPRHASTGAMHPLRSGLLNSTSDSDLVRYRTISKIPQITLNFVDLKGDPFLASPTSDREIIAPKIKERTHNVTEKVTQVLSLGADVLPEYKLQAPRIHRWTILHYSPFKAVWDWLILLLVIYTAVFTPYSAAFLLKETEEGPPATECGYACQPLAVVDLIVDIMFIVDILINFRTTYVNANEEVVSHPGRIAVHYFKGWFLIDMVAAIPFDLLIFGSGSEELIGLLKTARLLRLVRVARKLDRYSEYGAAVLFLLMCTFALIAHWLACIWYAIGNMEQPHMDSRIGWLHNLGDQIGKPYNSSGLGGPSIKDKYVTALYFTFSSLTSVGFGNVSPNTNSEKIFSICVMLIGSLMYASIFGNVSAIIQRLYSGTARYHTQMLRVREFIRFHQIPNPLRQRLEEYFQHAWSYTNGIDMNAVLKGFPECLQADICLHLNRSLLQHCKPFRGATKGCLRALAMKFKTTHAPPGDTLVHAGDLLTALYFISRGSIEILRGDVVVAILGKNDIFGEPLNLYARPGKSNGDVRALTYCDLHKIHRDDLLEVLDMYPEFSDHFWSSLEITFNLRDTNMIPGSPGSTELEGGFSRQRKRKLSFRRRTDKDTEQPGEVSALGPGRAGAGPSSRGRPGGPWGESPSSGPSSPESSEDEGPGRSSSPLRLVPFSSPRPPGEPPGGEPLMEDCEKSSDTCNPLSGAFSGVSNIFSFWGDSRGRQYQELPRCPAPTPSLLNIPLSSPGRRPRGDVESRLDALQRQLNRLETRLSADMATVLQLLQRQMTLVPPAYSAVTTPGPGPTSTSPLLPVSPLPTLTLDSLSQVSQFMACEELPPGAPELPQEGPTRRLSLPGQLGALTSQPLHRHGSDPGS

Consider `CN[C@@H]1CCN(c2nc(N)nc3c2OCC(C(C)C)CN3)C1` (stereo partly drawn) [Example 11-9, 7-Isopropyl-4-((R)-3-(methylamino)pyrrolidin-1-yl)-6,7,8,9-tetrahydropyrimido[5,4-b][1,4]oxazepin-2-amine], for which the Kb in series [1] is 63.1 nM; in series [2], 50.1 nM.
Consider `CNC1CN(c2nc(N)nc3c2OCC2CCCC2N3)C1` (centres unmarked) [Example 17-3, 4-[3-(methylamino)azetidin-1-yl]-6a, 7,8,9,9a, 10-hexahydro-6H-cyclopenta[e]pyrimido[5,4-b][1,4]oxazepin-2-amine], for which the Kb in series [2] was 31.6 nM. 30 µM produced 42% inhibition in series [3].
Regarding `CC(C)[C@@H]1COc2c(nc(N)nc2N2CC[C@@H](N)C2)N1` [Example 2-2, (R)-4-((R)-3-Aminopyrrolidin-1-yl)-7-isopropyl-7,8-dihydro-6H-pyrimido[5,4-b][1,4]oxazin-2-amine], in series [1], the Kb was 0.631 nM. The IC50 in series [4] is not below 100000 nM.
As for `CN[C@@H]1CCN(c2nc(N)nc3c2OCC[C@H](C)N3)C1` [Example 11-3, (S)-8-Methyl-4-((R)-3-(methylamino)pyrrolidin-1-yl)-6,7,8,9-tetrahydropyrimido[5,4-b][1,4]oxazepin-2-amine], the Kb in series [1] was 31.6 nM; in series [2], 10 nM.
Turning to `CC(C)c1cc(N2CC[C@@H](N)C2)nc(N)n1` [JNJ-39758979, reference compound], the “Human H4 cAMP fpKb” value in series [1] was 8.1. Besides, in series [2], the “Human H4 DMR fpKb” value was determined as 8.5.
As to `CN[C@@H]1CCN(c2nc(N)nc3c2OCC2CCCC2N3)C1` (stereo partly drawn) [Example 17-1, 4-[(3R)-3-(methylamino)pyrrolidin-1-yl]-6a,7,8,9,9a, 10-hexahydro-6H-cyclopenta[e]pyrimido[5,4-b][1,4]oxazepin-2-amine], in series [2], the Kb was 12.6 nM. The molecule further had an inhibition at 30 µM in series [3] of 29%.
For `CNC1CN(c2nc(N)nc3c2OC[C@@H](C(C)C)N3)C1` [Example 3-2, (R)-7-Isopropyl-4-(3-(methylamino)azetidin-1-yl)-7,8-dihydro-6H-pyrimido[5,4-b][1,4]oxazin-2-amine], in series [1], the Kb is 1.26 nM. For the same molecule, the 50% inhibitory concentration (IC50) in series [4] was not below 100000 nM. The inhibition at 30 µM in series [3] was found to be 26%.
As for `CN[C@@H]1CCN(c2nc(N)nc3c2OCC[C@@H](C)N3)C1` [Example 11-2, (R)-8-Methyl-4-((R)-3-(methylamino)pyrrolidin-1-yl)-6,7,8,9-tetrahydropyrimido[5,4-b][1,4]oxazepin-2-amine], the Kb in series [1] is 2.51 nM; in series [2], 5.01 nM. Besides, 30 µM produced 13% inhibition in series [3].
On to `CN[C@@H]1CCN(c2nc(N)nc3c2OC[C@@H](C(C)C)N3)C1` [Example 1-4, (R)-7-Isopropyl-4-((R)-3-(methylamino)pyrrolidin-1-yl)-7,8-dihydro-6H-pyrimido[5,4-b][1,4]oxazin-2-amine], for which the Kb in series [1] was 0.794 nM. This molecule had an IC50 in series [4] not below 100000 nM. The same molecule yielded an inhibition at 30 µM in series [3] of 20%.
Turning to `CN1CCN(C(=O)c2cc3cc(Cl)ccc3[nH]2)CC1` [JNJ-7777120, reference compound], in series [4], inhibition was half-maximal at 3980 nM (IC50).
For the molecule `CN[C@@H]1CCN(c2nc(N)nc3c2OCC[C@@H](C(C)C)N3)C1` [Example 11-5, (S)-8-Isopropyl-4-((R)-3-(methylamino)pyrrolidin-1-yl)-6,7,8,9-tetrahydropyrimido[5,4-b][1,4]oxazepin-2-amine], in series [1], the Kb is 0.398 nM. For the same molecule, the IC50 in series [4] was not below 100000 nM. 30 µM produced 21% inhibition in series [3].
Take `CN[C@@H]1CCN(c2nc(N)nc3c2OCC(C)(C)CN3)C1` [Example 17-5, 7,7-dimethyl-4-[(3R)-3-(methylamino)pyrrolidin-1-yl]-6,7,8,9-tetrahydropyrimido[5,4-b][1,4]oxazepin-2-amine]: the Kb in series [2] is 200 nM.
As for `CN[C@@H]1CCN(c2ncnc3c2OCC[C@@H](C(C)C)N3)C1` [Example 14-1, (R)-1-((S)-8-Isopropyl-6,7,8,9-tetrahydropyrimido[5,4-b][1,4]oxazepin-4-yl)-N-methylpyrrolidin-3-amine], the Kb in series [1] is 3.16 nM; in series [2] it was 0.794 nM. The molecule further came in with an inhibition at 30 µM in series [3] of 41%.

(Values after patent publication US20240317775A1, “H4 Antagonist Compounds” (HEPTARES THERAPEUTICS LIMITED, priority 2020, published 2024).)
